The target in the test is Phospholipase D2 (Homo sapiens) + Phospholipase D2 (Homo sapiens) (UniProt O14939+O14939). Nature of the test: purified PLD2 enzyme inhibitors, dose response, biochemical, assay 3B, library 32 (AID 624000). Conditions: purified PLD2 enzyme activity.
Sequence of Phospholipase D2 (Homo sapiens) + Phospholipase D2 (Homo sapiens) (O14939 whole entry, looked up): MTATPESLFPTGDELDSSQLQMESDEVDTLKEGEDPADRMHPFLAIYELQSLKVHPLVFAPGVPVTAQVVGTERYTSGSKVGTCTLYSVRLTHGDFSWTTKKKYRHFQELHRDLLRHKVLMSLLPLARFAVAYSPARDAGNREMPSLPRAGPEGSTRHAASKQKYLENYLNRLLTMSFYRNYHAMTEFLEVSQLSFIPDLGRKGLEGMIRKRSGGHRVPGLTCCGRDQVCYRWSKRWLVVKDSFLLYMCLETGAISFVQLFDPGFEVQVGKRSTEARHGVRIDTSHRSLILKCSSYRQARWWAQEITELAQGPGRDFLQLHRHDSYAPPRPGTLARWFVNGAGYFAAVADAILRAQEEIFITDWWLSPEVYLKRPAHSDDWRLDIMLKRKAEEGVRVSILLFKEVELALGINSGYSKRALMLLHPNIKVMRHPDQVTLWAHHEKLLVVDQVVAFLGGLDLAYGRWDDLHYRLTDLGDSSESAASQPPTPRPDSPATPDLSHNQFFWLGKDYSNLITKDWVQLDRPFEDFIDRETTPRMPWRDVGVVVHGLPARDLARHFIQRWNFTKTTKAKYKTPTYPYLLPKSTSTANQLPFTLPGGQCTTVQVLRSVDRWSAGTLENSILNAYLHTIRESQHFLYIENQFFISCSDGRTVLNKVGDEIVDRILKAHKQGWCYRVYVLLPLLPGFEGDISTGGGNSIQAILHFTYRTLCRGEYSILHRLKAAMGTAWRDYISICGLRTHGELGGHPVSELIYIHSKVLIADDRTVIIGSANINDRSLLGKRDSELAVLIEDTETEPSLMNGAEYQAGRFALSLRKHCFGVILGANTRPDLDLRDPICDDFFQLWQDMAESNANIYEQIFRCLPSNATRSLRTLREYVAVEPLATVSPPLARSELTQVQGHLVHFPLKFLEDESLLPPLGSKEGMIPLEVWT
Sequence of Phospholipase D2 (Homo sapiens) + Phospholipase D2 (Homo sapiens) (O14939 whole entry, looked up): as above

By IC50 is commonly meant the concentration needed to halve the response being measured. In the case of `COc1cc(C(=O)NCCN2CCC3(CC2)C(=O)NCN3c2cccc(F)c2)cc(OC)c1OC`, the IC50 was 1430 nM.

As for `C[C@@H](CN1CCC2(CC1)C(=O)NCN2c1cccc(F)c1)NC(=O)c1ccc(Br)cc1`, the IC50 is 84 nM.
